The source of these data is US20100016387A1, “METHOD OF TREATMENT” (priority 2006, published 2010).

For series [1], the system named is neonatal rat cardiomyocytes. Put plainly: Fatty acid oxidation (14CO2 release from 14C-palmitate) in rat primary cardiomyocytes treated with DGAT1 inhibitor. To be noted: 1 μM, 2 hr.
Description: Neonatal Rat Ventricular Myocytes (NRVM's) were extracted from 1-3 day old Sprague Dawley rat pups. […] Both the right and left ventricles were digested in CBHHF media containing 0.2% Trypsin, 100 U Penn-Strep and DNAse II. […] Fibroblasts were separated from the myocytes by preplating for 30 min. […] Myocytes were then collected and cultured in MEM/5% FBS/Pen-Strep/BrDU/L-Gln overnight at 37 C, 5.0% CO2 at a confluency of 75-80% (1.8×10^6 cells per well of a 6 well plate and 0.9×10^6 cells per well of a 12 well plate). The following day myocyte containing plates were assayed for fatty acid oxidation capacity.
Rat primary cardiomyocytes were plated in either 6 well plate or 12 well plate. […] The sample was counted on a beta scintillation counter after resting for at least 2 hours. […]
Primary rat cardiomyocytes were incubated with 1 μM {4-[4-(4-Amino-7,7-dimethyl-7H-pyrimido[4,5-b][1,4]oxazin-6-yl)-phenyl]-cyclohexyl}-acetic acid for 2 hr. The cells were then incubated with ^14C-labeled palmitate and liberated ^14CO2 was determined as described. […]
Primary rat cardiomyocytes were incubated with 1 μM {4-[4-(4-Amino-7,7-dimethyl-7H-pyrimido[4,5-b][1,4]oxazin-6-yl)-phenyl]-cyclohexyl}-acetic acid for 2 hr. The cells were then incubated with ^14C-labeled palmitate, with 0.5 mM glucose, and liberated ^14CO2 was determined as described. […]

`CC1(C)Oc2ncnc(N)c2N=C1c1ccc(C2CCC(CC(=O)O)CC2)cc1` (stereo not drawn): the “fatty acid oxidation in cardiomyocytes in presence of glucose” value in series [1] (0.5 mM glucose, FIG. 3, p<0.05) is “robust decrease in fatty acid oxidation”. Also, the “decrease in the ability of cells to oxidize [14C]palmitate” value in series [1] (absence of glucose, FIG. 2, p<0.05) was around 15%.
Consider `Cc1ccc(NC(=O)c2ccc3c(c2)C(=O)N(c2c(C)cccc2C)C3=O)cc1C`, for which the melting point – broadly, the temperature, or range, at which the solid turns liquid – lay in the range of 223 to 225 °C.
